US11458155B1, “Active ingredient complexes, compositions and methods for hangover relief and to ameliorate alcohol-induced liver damage” (FULGENT LIFE INC., priority 2021, dated 2022)

What was measured:
male C57BL/6J mice [1] = assay: Blood ethanol concentration after ethanol ingestion (headspace gas chromatography); format: in vivo; details: oral/intragastric 500 mg/kg (Example 1: 250 or 500 mg/kg) before 8 ml/kg ethanol (40% w/v); FIG. 1A
Protocol: Mice were randomly divided into a normal group (untreated group), a control group and a treatment group, with 8 mice in each group. […] The control group was given the same ethanol solution and corresponding distilled water, while the normal group was only given corresponding distilled water. At different time points of the experiment, the mice were anesthetized by intraperitoneal injection of 10% chloral hydrate (350 mg/kg body weight). Blood and liver tissues were extracted from each animal.
Eyeball blood samples (0.3 mL) were taken, each was put into an 8 mL headspace vial containing 1.2 mL 0.6 M perchloric acid, 0.5 mL trichloroacetic acid (10%) and 0.3 mL internal standard (160 mg/L tertiary butanol), and the concentrations of ethanol and acetaldehyde were determined with headspace gas chromatography.
Blood samples were collected from the infraorbital venous plexus at different time points (as indicated) after the ethanol administration. Blood ethanol (FIG. 1A) and acetaldehyde (FIG. 1B) levels were determined. Each group contained 6-8 mice. Data are presented as the mean±SD.

mice [2] = details: cited from earlier work
rats = details: cited from earlier work
[3] = cited from earlier work
[4] = after oral administration; cited from earlier work
glutamate receptors = details: not as great as that of L-glutamic acid; cited from earlier work
mice [5] = details: intraperitoneal injection of theanine, oral administration of ethanol; cited from earlier work
male C57BL/6J mice [6] = assay: Liver MDA and SOD, oxidative damage caused by acute alcohol ingestion; format: in vivo; details: 500 mg/kg intragastric 15 min prior to 8 ml/kg ethanol (40% w/v), liver 6 hours after alcohol; for MDA content in the liver: FIG. 3A; for SOD activity in liver: FIG. 3B
male C57BL/6J mice [7] = assay: Blood acetaldehyde concentration after ethanol ingestion (headspace gas chromatography); format: in vivo; details: FIG. 1B
male C57BL/6J mice [8] = assay: Plasma AST and ALT, acute alcohol-induced hepatotoxicity; format: in vivo; details: 500 mg/kg intragastric before 8 ml/kg ethanol (40% w/v), blood 6 hours after alcohol, vs model group
male C57BL/6J mice [9] = assay: Liver triglyceride (TG) level, lipid metabolism in acute alcoholic liver damage; format: in vivo; details: 500 mg/kg pretreatment, alcohol-loaded mice, vs alcohol exposure alone; FIG. 4A
male C57BL/6J mice [10] = assay: Serum very low density lipoprotein (VLDL), lipid metabolism in acute alcoholic liver damage; format: in vivo; details: 500 mg/kg pretreatment, alcohol-loaded mice, vs alcohol exposure alone; FIG. 4B
C57BL/6J mice = details: cited from earlier work
cells = details: cited from earlier work

SMILES: O=C1c2c(O)cc(O)cc2O[C@H](c2cc(O)c(O)c(O)c2)[C@H]1O [DHM, Dihydromyricetin]
- ethanol in blood (male C57BL/6J mice [1]): significantly reduce
- blood alcohol levels (mice [2]): reduce blood alcohol levels
- muscle relaxation induced by alcohol (rats): prevent muscle relaxation

SMILES: N[C@@H](CS)C(=O)O [L-cysteine]
- stress and anxiety ([3]; dose of 600 mg): relieved
- self-assessed severity of the hangover, nausea and headache ([3]; dose of 1200 mg): improved

SMILES: CCNC(=O)CC[C@H](N)C(=O)O [L-theanine]
- ethanol in blood (male C57BL/6J mice [1]): significantly reduce
- time to cross the blood-brain barrier [4]: ≤ 30 min
- binding affinity to glutamate receptors (glutamate receptors): weak
- effect with respect to alcoholic liver injury (mice [5]): protective effect

SMILES: CC(=O)N[C@@H](CS)C(=O)O [NAC, N-acetyl-cysteine]
- ethanol in blood (male C57BL/6J mice [1]): significantly reduce
- MDA content in the liver (male C57BL/6J mice [6]): significantly reduce
- SOD activity in liver (male C57BL/6J mice [6]): increase

SMILES: NC(=O)C1=CN([C@@H]2O[C@H](COP(=O)(O)OP(=O)(O)OC[C@H]3O[C@@H](n4cnc5c(N)ncnc54)C(O)C3O)C(O)C2O)C=CC1 (some centres unmarked) [NADH, nicotinamide adenine dinucleotide (NAD)+hydrogen (H)]
- ethanol in blood (male C57BL/6J mice [1]): significantly reduce
- acetaldehyde in the blood (male C57BL/6J mice [7]; after two hours after ethanol administration): significantly reduced
- blood acetaldehyde levels (male C57BL/6J mice [7]; between 30 minutes and two hours after ethanol administration): significantly increased
- plasma AST level (male C57BL/6J mice [8]; FIG. 2A): significantly reduce
- plasma ALT level (male C57BL/6J mice [8]; FIG. 2B): significantly reduce
- MDA content in the liver (male C57BL/6J mice [6]): significantly reduce
- SOD activity in liver (male C57BL/6J mice [6]): increase
- liver TG level (male C57BL/6J mice [9]): decreased
- serum VLDL level (male C57BL/6J mice [10]): decreased
- liver NAD+/NADH ratio (C57BL/6J mice): significantly increased
- NAD+ content in liver, blood, brain and fat (C57BL/6J mice; intraperitoneal injection): significantly increased
- cell death caused by NAD+-depleting genotoxins (cells; NADH-treated cells, e.g. hydrogen peroxide): resistant to cell death
- NAD+ increase compared to nicotinamide mononucelotide (NMN) (cells; at the same concentrations): greater NAD+ increases
- apoptosis markers in cells (cells): did not induce apoptosis markers
